Data: patent US20100105729A1, “ARYL-SUBSTITUTED HETEROCYCLIC PDE4 INHIBITORS AS ANTI-INFLAMMATORY AGENTS” (KALYPSYS, INC., priority 2006, published 2010)

biological target: T1, PDE4B (Homo sapiens, UniProt Q07343); assay: PDE4 IMAP Assay; type: biochemical; conditions: catalytic domain of PDE4B, fluorescence polarization
T1 construct: hexa-histidine (His6) (N); made in house
Text: Compounds may be screened for functional potency in in vitro biochemical assays for their ability to inhibit the activity of phosphodiesterase (PDE) enzymes. A commercial PDE assay, Molecular Device's PDE IMAP assay, was modified and utilized to measure the inhibitory activity of compounds on PDE isoforms. The IMAP technology is based on the high affinity binding of phosphate by immobilized metal (MIII) coordination complexes on nanoparticles. This IMAP “binding reagent” complexes with phosphate groups on the nucleotide monophosphates generated in the reaction. Such binding causes a change in the rate of the molecular motion of the nucleotide, and results in an increase in the fluorescence polarization value observed for the fluorescent label attached to the substrate. PDE inhibitors prevent the generation of nucleotide monophosphates and the subsequent increase in polarization value observed for the fluorescent label attached to the substrate. The catalytic domain of PDE4B was fused to an amino-terminus hex-histadine affinity tag and purified. PDE4B enzyme was incubated with compounds for 10 minutes. Fluorescently labeled cyclic AMP substrates were then added to the PDE enzyme mix and incubated for 2 hours at room temperature. IMAP binding reagent was then added to the enzyme mix, incubated for 10-30 minutes and fluorescent polarization of the fluorescently labeled substrate was read either with the Perkin Elmer Viewlux or Molecular Devices Acquest or Analyst. Roflumilast and Rolipram are the positive controls used in the assay.

T1 sequence (Q07343 330-659 limits assumed, species assumed): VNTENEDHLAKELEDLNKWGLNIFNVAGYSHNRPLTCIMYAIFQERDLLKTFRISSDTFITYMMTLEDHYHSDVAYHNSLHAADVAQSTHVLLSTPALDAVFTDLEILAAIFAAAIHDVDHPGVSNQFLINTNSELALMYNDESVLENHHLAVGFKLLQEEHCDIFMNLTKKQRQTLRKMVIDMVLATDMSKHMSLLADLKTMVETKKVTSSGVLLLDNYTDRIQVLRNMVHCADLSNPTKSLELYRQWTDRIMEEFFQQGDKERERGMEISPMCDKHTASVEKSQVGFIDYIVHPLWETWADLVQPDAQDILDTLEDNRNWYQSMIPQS

| Structure (SMILES) | inhibition at 10 µM |
| --- | --- |
| COc1ccc(C2=NN(C(=O)CCC(=O)O)C(c3cc4ccccc4nc3Cl)C2)cc1OC (stereo not shown) [Example 27, 4-(5-(2-chloroquinolin-3-yl)-3-(3,4-dimethoxyphenyl)-4,5-dihydro-1H-pyrazol-1-yl)-4-oxobutanoic acid] | < 50% |
| COc1ccc(C2=NN(C(C)=O)C(c3cc4ccccc4nc3Cl)C2)cc1OC (stereo not shown) [Example 28, 1-(5-(2-chloroquinolin-3-yl)-3-(3,4-dimethoxyphenyl)-4,5-dihydro-1H-pyrazol-1-yl)ethanone] | < 50% |
| COc1ccc(OC)c(C2CC(c3ccc(OC)c(OC)c3)=NN2C(=O)c2ccccc2Cl)c1 (stereo not shown) [Example 29, (2-chlorophenyl)(5-(2,5-dimethoxyphenyl)-3-(3,4-dimethoxyphenyl)-4,5-dihydro-1H-pyrazol-1-yl)methanone] | < 50% |
| COc1ccc(C2=NN(C(=O)c3ccccc3Cl)C(c3cccc(OC)c3OC)C2)cc1OC (stereo not shown) [Example 30, (2-chlorophenyl)(5-(2,3-dimethoxyphenyl)-3-(3,4-dimethoxyphenyl)-4,5-dihydro-1H-pyrazol-1-yl)methanone] | < 50% |
| COc1ccc(C2=NN(C(=O)c3ccccc3Cl)C(c3ccc(C)cc3)C2)cc1OC (stereo not shown) [Example 32, (2-chlorophenyl)(3-(3,4-dimethoxyphenyl)-5-p-tolyl-4,5-dihydro-1H-pyrazol-1-yl)methanone] | < 50% |
| COc1ccc(C2CC(c3ccc(OC)c(OC)c3)=NN2C(=O)c2ccccc2Cl)cc1 (stereo not shown) [Example 33, (2-chlorophenyl)(3-(3,4-dimethoxyphenyl)-5-(4-methoxyphenyl)-4,5-dihydro-1H-pyrazol-1-yl)methanone] | ≥ 50% |
| COc1ccc(C2=NN(C(=O)c3ccccc3Cl)C(c3ccccc3F)C2)cc1OC (stereo not shown) [Example 34, (2-chlorophenyl)(3-(3,4-dimethoxyphenyl)-5-(2-fluorophenyl)-4,5-dihydro-1H-pyrazol-1-yl)methanone] | ≥ 50% |
| COc1ccc(C2=NN(C(=O)c3ccccc3Cl)C(c3ccccc3Cl)C2)cc1OC (stereo not shown) [Example 35, (2-chlorophenyl)(5-(2-chlorophenyl)-3-(3,4-dimethoxyphenyl)-4,5-dihydro-1H-pyrazol-1-yl)methanone] | < 50% |
| COc1ccc(C2CC(c3ccc(OC)c(OC)c3)=NN2C(=O)c2ccccc2)cc1 (stereo not shown) [Example 36, (3-(3,4-dimethoxyphenyl)-5-(4-methoxyphenyl)-4,5-dihydro-1H-pyrazol-1-yl)(phenyl)methanone] | ≥ 50% |
| COc1ccc(C2=NN(C(=O)c3ccccc3)C(c3ccc(N(C)C)cc3)C2)cc1OC (stereo not shown) [Example 37, (3-(3,4-dimethoxyphenyl)-5-(4-(dimethylamino)phenyl)-4,5-dihydro-1H-pyrazol-1-yl)(phenyl)methanone] | < 50% |
| COc1ccc(C2=NN(C(=O)c3cccs3)C(c3cccc(OC)c3OC)C2)cc1OC (stereo not shown) [Example 38, (5-(2,3-dimethoxyphenyl)-3-(3,4-dimethoxyphenyl)-4,5-dihydro-1H-pyrazol-1-yl)(thiophen-2-yl)methanone] | ≥ 50% |
| COc1ccc(C2=NN(C(=O)c3cccs3)C(c3ccccc3Cl)C2)cc1OC (stereo not shown) [Example 39, (5-(2-chlorophenyl)-3-(3,4-dimethoxyphenyl)-4,5-dihydro-1H-pyrazol-1-yl)(thiophen-2-yl)methanone] | < 50% |
| COc1ccc(C2CC(c3ccc(OC)c(OC)c3)=NN2C(=O)c2cccs2)cc1 (stereo not shown) [Example 41, (3-(3,4-dimethoxyphenyl)-5-(4-methoxyphenyl)-4,5-dihydro-1H-pyrazol-1-yl)(thiophen-2-yl)methanone] | ≥ 50% |
| COc1ccc(C2=NN(C(=O)c3cc(OC)c(OC)c(OC)c3)C(c3ccc(Cl)cc3)C2)cc1OC (stereo not shown) [Example 43, (5-(4-chlorophenyl)-3-(3,4-dimethoxyphenyl)-4,5-dihydro-1H-pyrazol-1-yl)(3,4,5-trimethoxyphenyl)methanone] | ≥ 50% |
| COc1ccc(C2=NN(C(=O)c3cc(OC)c(OC)c(OC)c3)C(c3ccc(Br)cc3)C2)cc1OC (stereo not shown) [Example 44, (5-(4-bromophenyl)-3-(3,4-dimethoxyphenyl)-4,5-dihydro-1H-pyrazol-1-yl)(3,4,5-trimethoxyphenyl)methanone] | ≥ 50% |
| COc1ccc(C2=NN(C(=O)c3cc(OC)c(OC)c(OC)c3)C(c3ccc(C)cc3)C2)cc1OC (stereo not shown) [Example 45, (3-(3,4-dimethoxyphenyl)-5-p-tolyl-4,5-dihydro-1H-pyrazol-1-yl)(3,4,5-trimethoxyphenyl)methanone] | ≥ 50% |
| COc1ccc(C2=NN(C(=O)c3ccc(Br)o3)C(c3ccc(F)cc3)C2)cc1OC (stereo not shown) [Example 46, (5-bromofuran-2-yl)(3-(3,4-dimethoxyphenyl)-5-(4-fluorophenyl)-4,5-dihydro-1H-pyrazol-1-yl)methanone] | ≥ 50% |

| Structure (SMILES) | inhibition at 10 µM |
| --- | --- |
| COc1ccc(C2=NN(C(=O)c3ccc(Br)o3)C(c3ccc(Cl)cc3)C2)cc1OC (stereo not shown) [Example 47, (5-bromofuran-2-yl)(5-(4-chlorophenyl)-3-(3,4-dimethoxyphenyl)-4,5-dihydro-1H-pyrazol-1-yl)methanone] | ≥ 50% |
| COc1ccc(C2=NN(C(=O)c3ccc(Br)o3)C(c3ccc(C)cc3)C2)cc1OC (stereo not shown) [Example 48, (5-bromofuran-2-yl)(3-(3,4-dimethoxyphenyl)-5-p-tolyl-4,5-dihydro-1H-pyrazol-1-yl)methanone] | ≥ 50% |
| COc1ccc(C2=NN(C(=O)c3ccc(Br)o3)C(c3ccccc3F)C2)cc1OC (stereo not shown) [Example 49, (5-bromofuran-2-yl)(3-(3,4-dimethoxyphenyl)-5-(2-fluorophenyl)-4,5-dihydro-1H-pyrazol-1-yl)methanone] | ≥ 50% |
| COc1ccc(C2=NN(C(=O)c3ccc(Br)o3)C(c3ccccc3Cl)C2)cc1OC (stereo not shown) [Example 50, (5-bromofuran-2-yl)(5-(2-chlorophenyl)-3-(3,4-dimethoxyphenyl)-4,5-dihydro-1H-pyrazol-1-yl)methanone] | < 50% |
| COc1ccc(C2=NN(C(=O)c3ccc(Br)o3)C(c3ccccc3)C2)cc1OC (stereo not shown) [Example 51, (5-bromofuran-2-yl)(3-(3,4-dimethoxyphenyl)-5-phenyl-4,5-dihydro-1H-pyrazol-1-yl)methanone] | ≥ 50% |
| COc1ccc(C2=NN(S(=O)(=O)c3ccc(C)cc3)C(c3cccc([N+](=O)[O-])c3)C2)cc1OC (stereo not shown) [Example 52, 3-(3,4-dimethoxyphenyl)-5-(3-nitrophenyl)-1-tosyl-4,5-dihydro-1H-pyrazole] | < 50% |
| COc1ccc(C2=NN(S(=O)(=O)c3ccccc3)C(c3cccc([N+](=O)[O-])c3)C2)cc1OC (stereo not shown) [Example 53, 3-(3,4-dimethoxyphenyl)-5-(3-nitrophenyl)-1-(phenylsulfonyl)-4,5-dihydro-1H-pyrazole] | < 50% |
| COc1ccc(C2=NN(S(=O)(=O)c3ccccc3)C(c3ccc(F)cc3)C2)cc1OC (stereo not shown) [Example 54, 3-(3,4-dimethoxyphenyl)-5-(4-fluorophenyl)-1-(phenylsulfonyl)-4,5-dihydro-1H-pyrazole] | < 50% |
| COc1ccc(C2=NN(S(=O)(=O)c3ccc(C)cc3)C(c3ccc(F)cc3)C2)cc1OC (stereo not shown) [Example 55, 3-(3,4-dimethoxyphenyl)-5-(4-fluorophenyl)-1-tosyl-4,5-dihydro-1H-pyrazole] | < 50% |
| COc1ccc(C2=NN(S(=O)(=O)c3ccccc3)C(c3ccc(C)cc3)C2)cc1OC (stereo not shown) [Example 56, 3-(3,4-dimethoxyphenyl)-1-(phenylsulfonyl)-5-p-tolyl-4,5-dihydro-1H-pyrazole] | < 50% |
| COc1ccc(C2=NN(S(=O)(=O)c3ccc(C)cc3)C(c3ccc(C)cc3)C2)cc1OC (stereo not shown) [Example 57, 3-(3,4-dimethoxyphenyl)-5-p-tolyl-1-tosyl-4,5-dihydro-1H-pyrazole] | < 50% |
| COc1ccc(C2=NN(S(=O)(=O)c3ccccc3)C(c3ccccc3F)C2)cc1OC (stereo not shown) [Example 58, 3-(3,4-dimethoxyphenyl)-5-(2-fluorophenyl)-1-(phenylsulfonyl)-4,5-dihydro-1H-pyrazole] | < 50% |
| COc1ccc(C2=NN(S(=O)(=O)c3ccccc3)C(c3ccccc3Cl)C2)cc1OC (stereo not shown) [Example 59, 5-(2-chlorophenyl)-3-(3,4-dimethoxyphenyl)-1-(phenylsulfonyl)-4,5-dihydro-1H-pyrazole] | < 50% |
| COc1ccc(C2=NN(S(=O)(=O)c3ccc(C)cc3)C(c3ccccc3Cl)C2)cc1OC (stereo not shown) [Example 60, 5-(2-chlorophenyl)-3-(3,4-dimethoxyphenyl)-1-tosyl-4,5-dihydro-1H-pyrazole] | < 50% |
| COc1ccc(C2=NN(S(=O)(=O)c3ccccc3)C(c3ccccc3OC)C2)cc1OC (stereo not shown) [Example 61, 3-(3,4-dimethoxyphenyl)-5-(2-methoxyphenyl)-1-(phenylsulfonyl)-4,5-dihydro-1H-pyrazole] | < 50% |
| COc1ccc(C2=NN(S(=O)(=O)c3ccc(C)cc3)C(c3ccccc3)C2)cc1OC (stereo not shown) [Example 62, 3-(3,4-dimethoxyphenyl)-5-phenyl-1-tosyl-4,5-dihydro-1H-pyrazole] | < 50% |
| COc1ccc(C2=NN(S(=O)(=O)c3ccccc3)C(c3ccccc3)C2)cc1OC (stereo not shown) [Example 63, 3-(3,4-dimethoxyphenyl)-5-phenyl-1-(phenylsulfonyl)-4,5-dihydro-1H-pyrazole] | < 50% |
